Consider five molecules from US4460781A, “4-(2-Benzoylphenyl-1-pyazole and 4-(2-benzoylphenyl)-1-pyrazoline derivatives” (Hoffmann-La Roche Inc., priority 1983, dated 1984).

As usually defined, the minimal effective dose is the smallest amount tested that counted as effective. A low value points to an effect from little substance. The term LD50 denotes the dose at which mortality reaches 50%. A high value points to lower toxicity.

The test system of one data set is Cats. The experiment in a line: Unanesthetized Cat (minimum symptoms, usually ataxia). Type of data set: in vivo. The note with it: Felis catus, po, cats treated orally. As for the experimental part: Cats are treated orally and observed for minimum symptoms--usually ataxia. One cat is used at a dose of 50 mg/kg. If activity is present, up to three cats/dose are used. Results are given as minimum effective dose.

Another data set is described as follows: Toxicity (LD50) (PO). The note with it: in vivo.
For the next data set, the system named is male mice. As to the kind of experiment: Inclined Screen (paralyzing effects, sliding off the screen). The conditions noted are these: Mus musculus, groups of 6, at least 4 hours, maximum dose of 500 mg/kg, read-out: Inclined Screen (PD50). Type of data set: in vivo. As for the experimental part: Groups of 6 male mice are given the test drug (maximum dose of 500 mg/kg) and then are left on the inclined screen at least 4 hours for observation of paralyzing effects severe enough to cause them to slide off the screen. If activity is observed, additional doses are taken until at least two are reached at which some, but not all of the animals slide off the screen. Doses at which mice fall off the screen due to toxicity or excitation are not included in the calculation of PD50.

The next data set relates to mice. The experiment in a line: Footshock (blocking of shock-elicited fighting in pairs of mice). The class given is in vivo. The note with it: Mus musculus, pretreated 1 hour, 3 out of 3 pairs blocked from fighting, maximum of 100 mg/kg, read-out: Footshock (100% blocking dose). The method, then:
A pair of mice is confined under a one liter beaker placed on a grid which presents shock to the feet. At least 5 fighting episodes are elicited in a two-minute period. Pairs of mice are marked and pretreated 1 hour to a second shocking. Logarithmic dose intervals are utilized up to a maximum of 100 mg/kg. At the 100% blocking dose, 3 out of 3 pairs must be blocked from fighting.

Take `Cc1[nH]nc2c1-c1ccc([N+](=O)[O-])cc1C(c1ccccc1Cl)=NC2` [6-(2-Chlorophenyl)-3-methyl-8-nitro-2H,4H-pyrazolo[3,4-d][2]benzazepine]: the minimal effective dose in the data set on Cats is 250 mg/kg. In the data set “Toxicity (LD50) (PO)”, this molecule gave a 50% lethal dose (LD50) of more than 1000 mg/kg. Moreover, the ED50 in the data set on male mice was determined as 400 mg/kg.
As for `OCCn1cc2c(n1)CN=C(c1ccccc1)c1cc(Cl)ccc1-2` [8-Chloro-2-(2-hydroxyethyl)-6-phenyl-2H,4H-pyrazolo[3,4-d][2]benzazepine], the minimal effective dose with Cats came out at 20 mg/kg. For the same molecule, the LD50 in the data set “Toxicity (LD50) (PO)” stood at 750 mg/kg. Further, in the data set on mice, the ED100 was 100 mg/kg. In addition, the ED50 with male mice came to 40 mg/kg.
The matching figures for `Clc1ccc2c(c1)C(c1ccccc1Cl)=NCc1n[nH]cc1-2` [8-Chloro-6-(2-chlorophenyl)-2H,4H-pyrazolo[3,4-d][2]benzazepine]: 10 mg/kg, 800 mg/kg, 25 mg/kg and 143 mg/kg.
For `Fc1ccccc1C1=NCc2n[nH]cc2-c2ccc(Cl)cc21` [8-Chloro-6-(2-fluorophenyl)-2H,4H-pyrazolo[3,4-d][2]benzazepine], in that order: 2 mg/kg, 760 mg/kg, 25 mg/kg and 66 mg/kg.
In turn, `CNC(=O)n1cc2c(n1)CN=C(c1ccccc1)c1cc(Cl)ccc1-2` [8-Chloro-N-methyl-6-phenyl-2H,4H-pyrazolo[3,4-d][2]benzazepine-2-carboxamide] yielded a minimal effective dose in the data set with Cats of 20 mg/kg. In the data set with mice, the ED100 was 25 mg/kg. The ED50 with male mice came out at 400 mg/kg.
